In the NIST ThermoML archive (doi:10.1021/acs.jced.7b00159):
Numbers after ± are expanded uncertainties.

Settings: Liquid, Pendant drop shape

CCCCCCCCCCC [undecane] + O=C=O
interfacial tension [mN/m]
Settings	323.15 K	353.15 K
1030 kPa	19.26 ± 1	–
1100 kPa	–	17.09 ± 1
2100 kPa	17.25 ± 1	15.83 ± 1
3100 kPa	15.05 ± 1	14.38 ± 1
4100 kPa	13.12 ± 1	13.17 ± 1
5100 kPa	10.98 ± 1	11.69 ± 1
6100 kPa	8.68 ± 1	10.45 ± 1
7100 kPa	7.2 ± 1	9.31 ± 1
8100 kPa	4.95 ± 1	7.45 ± 1
9100 kPa	–	6.45 ± 1
10100 kPa	–	5.59 ± 1
11100 kPa	–	4.37 ± 1
12100 kPa	–	3.39 ± 1

CCCCCCCCCCCCC [tridecane] + O=C=O
interfacial tension [mN/m]
Settings	323.15 K	353.15 K
1100 kPa	20 ± 1	–
1500 kPa	–	17.72 ± 1
2100 kPa	18.27 ± 1	–
2600 kPa	–	16.09 ± 1
4100 kPa	14.42 ± 1	14.09 ± 1
5100 kPa	12.93 ± 1	12.85 ± 1
6100 kPa	11.47 ± 1	12.02 ± 1
7100 kPa	9.42 ± 1	10.41 ± 1
8100 kPa	–	9.58 ± 1
8600 kPa	6.83 ± 1	–
9100 kPa	–	8.18 ± 1
9600 kPa	4.91 ± 1	–
10100 kPa	–	7.07 ± 1
10600 kPa	2.83 ± 1	–
11100 kPa	–	6.1 ± 1
12100 kPa	–	4.84 ± 1
13100 kPa	–	3.89 ± 1
14100 kPa	–	3.14 ± 1
15100 kPa	–	2.21 ± 1
16100 kPa	–	1.68 ± 1
17100 kPa	–	1.14 ± 1

CCCCCCCCCCCCCC [tetradecane] + O=C=O
interfacial tension [mN/m]
Settings	323.15 K	353.15 K
1050 kPa	20.79 ± 1	–
1200 kPa	–	18.19 ± 1
2100 kPa	–	17.01 ± 1
2110 kPa	18.89 ± 1	–
3050 kPa	17.05 ± 1	–
3200 kPa	–	15.62 ± 1
3950 kPa	15.41 ± 1	–
4040 kPa	–	14.48 ± 1
5020 kPa	13.51 ± 1	–
5120 kPa	–	13.21 ± 1
5960 kPa	11.59 ± 1	–
6110 kPa	–	12.2 ± 1
7030 kPa	9.79 ± 1	–
7090 kPa	–	10.94 ± 1
8000 kPa	8.27 ± 1	–
8090 kPa	–	9.9 ± 1
8940 kPa	6.5 ± 1	–
9020 kPa	6.35 ± 1	–
10050 kPa	3.98 ± 1	7.61 ± 1
11120 kPa	–	6.5 ± 1
12010 kPa	–	5.5 ± 1

CCCCCCCCCCCCCCC [pentadecane] + O=C=O
interfacial tension [mN/m]
Settings	323.15 K	353.15 K
1050 kPa	21.31 ± 1	–
1500 kPa	–	18.19 ± 1
2100 kPa	–	17.27 ± 1
2130 kPa	19.32 ± 1	–
3100 kPa	17.53 ± 1	16.23 ± 1
4050 kPa	15.63 ± 1	–
4200 kPa	–	14.66 ± 1
5130 kPa	13.49 ± 1	–
5400 kPa	–	13.29 ± 1
6100 kPa	11.98 ± 1	12.36 ± 1
7100 kPa	10.16 ± 1	–
7900 kPa	–	10.2 ± 1
8100 kPa	8.46 ± 1	–
8900 kPa	–	8.9 ± 1
9000 kPa	6.66 ± 1	–
9600 kPa	5.32 ± 1	–
10000 kPa	–	7.87 ± 1
10100 kPa	4.72 ± 1	–
11100 kPa	–	6.78 ± 1
12100 kPa	–	5.82 ± 1
13100 kPa	–	4.66 ± 1
14100 kPa	–	3.75 ± 1
15100 kPa	–	3.06 ± 1

CCCCCCCCCCCCCCCCCC [octadecane] + O=C=O
interfacial tension [mN/m]
Settings	323.15 K	353.15 K
400 kPa	–	20.05 ± 1
410 kPa	23.35 ± 1	–
1100 kPa	–	19.16 ± 1
1300 kPa	21.23 ± 1	–
2000 kPa	18.53 ± 1	–
2200 kPa	–	17.73 ± 1
2670 kPa	17.13 ± 1	–
3200 kPa	15.63 ± 1	–
3300 kPa	–	16.22 ± 1
4000 kPa	14.12 ± 1	–
4180 kPa	–	15.13 ± 1
5100 kPa	11.94 ± 1	–
5300 kPa	–	13.86 ± 1
6150 kPa	–	12.92 ± 1
6250 kPa	9.84 ± 1	–
7000 kPa	8.65 ± 1	–
7200 kPa	–	11.8 ± 1
8100 kPa	–	10.68 ± 1
8150 kPa	5.07 ± 1	–
9100 kPa	3.15 ± 1	–
9300 kPa	–	9.66 ± 1
10100 kPa	1.83 ± 1	8.87 ± 1
11100 kPa	–	7.66 ± 1
12100 kPa	–	6.63 ± 1
13000 kPa	–	5.74 ± 1
14000 kPa	–	4.91 ± 1
15000 kPa	–	4.05 ± 1
16300 kPa	–	3.08 ± 1
17400 kPa	–	2.49 ± 1

CCCCCCCCCC [decane] + O=C=O
interfacial tension [mN/m]
Settings	323.15 K	353.15 K
900 kPa	18.82 ± 1	–
1200 kPa	–	16.45 ± 1
2100 kPa	16.35 ± 1	15.25 ± 1
2990 kPa	14.77 ± 1	–
3020 kPa	–	14.07 ± 1
4100 kPa	12.56 ± 1	12.52 ± 1
5100 kPa	–	11.28 ± 1
6100 kPa	8.43 ± 1	9.86 ± 1
7100 kPa	6.85 ± 1	–
7110 kPa	–	8.6 ± 1
8100 kPa	4.89 ± 1	7.85 ± 1
9100 kPa	–	5.91 ± 1
10100 kPa	–	4.65 ± 1

CCCCCCCCCCCCCCCC [hexadecane] + O=C=O
Settings	interfacial tension [mN/m]
323.15 K, 1030 kPa	21.5 ± 1
323.15 K, 2050 kPa	19.61 ± 1
323.15 K, 2960 kPa	17.95 ± 1
323.15 K, 4010 kPa	15.94 ± 1
323.15 K, 5020 kPa	14.12 ± 1
323.15 K, 5960 kPa	12.43 ± 1
323.15 K, 7000 kPa	10.52 ± 1
323.15 K, 8020 kPa	8.71 ± 1
323.15 K, 8960 kPa	6.98 ± 1
323.15 K, 9040 kPa	7.5 ± 1
323.15 K, 10020 kPa	5.02 ± 1
353.15 K, 1200 kPa	18.68 ± 1
353.15 K, 2100 kPa	17.48 ± 1
353.15 K, 3200 kPa	16.05 ± 1
353.15 K, 4040 kPa	14.99 ± 1
353.15 K, 5120 kPa	13.67 ± 1
353.15 K, 6110 kPa	12.5 ± 1
353.15 K, 7090 kPa	11.37 ± 1
353.15 K, 8090 kPa	10.25 ± 1
353.15 K, 8990 kPa	9.28 ± 1
353.15 K, 10050 kPa	8.1 ± 1
353.15 K, 11120 kPa	7.11 ± 1
353.15 K, 12010 kPa	6.12 ± 1

CCCCCCCCCCCCCCCCCCC [nonadecane] + O=C=O
interfacial tension [mN/m]
Settings	323.15 K	353.15 K
1100 kPa	–	19.52 ± 1
2060 kPa	–	18.23 ± 1
2400 kPa	20.57 ± 1	–
3100 kPa	–	16.88 ± 1
3200 kPa	18.91 ± 1	–
4140 kPa	–	15.58 ± 1
4200 kPa	17.25 ± 1	–
5050 kPa	15.27 ± 1	–
5140 kPa	–	14.35 ± 1
6060 kPa	–	13.27 ± 1
6150 kPa	12.93 ± 1	–
7100 kPa	11.35 ± 1	–
7120 kPa	–	12.06 ± 1
8050 kPa	–	11.03 ± 1
8200 kPa	9.61 ± 1	–
9200 kPa	7.78 ± 1	9.76 ± 1
10000 kPa	6.39 ± 1	–
10020 kPa	–	8.94 ± 1
11100 kPa	–	7.87 ± 1
12000 kPa	–	7 ± 1
13070 kPa	–	5.97 ± 1
14040 kPa	–	5.08 ± 1

CCCCCCCCCCCC [dodecane] + O=C=O
interfacial tension [mN/m]
Settings	323.15 K	353.15 K
1100 kPa	19.27 ± 1	16.94 ± 1
2100 kPa	17.29 ± 1	16.02 ± 1
3100 kPa	–	14.66 ± 1
3600 kPa	14.47 ± 1	–
4100 kPa	13.55 ± 1	13.4 ± 1
5100 kPa	–	11.99 ± 1
6100 kPa	9.51 ± 1	10.69 ± 1
7100 kPa	7.68 ± 1	9.44 ± 1
8100 kPa	5.57 ± 1	8.32 ± 1
9100 kPa	–	6.96 ± 1
10100 kPa	–	5.88 ± 1
11100 kPa	–	4.8 ± 1

CCCCCCCCCCCCCCCCCCCC [eicosane] + O=C=O
353.15 K
Settings	interfacial tension [mN/m]
1000 kPa	20.35 ± 1
2000 kPa	18.99 ± 1
4000 kPa	16.13 ± 1
6000 kPa	13.37 ± 1
8000 kPa	10.34 ± 1
10000 kPa	7.85 ± 1
12000 kPa	5.55 ± 1
14000 kPa	3.71 ± 1
16000 kPa	2.38 ± 1

CCCCCCCCCCCCCCCCC [heptadecane] + O=C=O
interfacial tension [mN/m]
Settings	323.15 K	353.15 K
1100 kPa	–	18.47 ± 1
1200 kPa	20.95 ± 1	–
2100 kPa	–	17.15 ± 1
2600 kPa	18.3 ± 1	–
3300 kPa	16.99 ± 1	15.48 ± 1
4100 kPa	15.49 ± 1	14.62 ± 1
5100 kPa	13.95 ± 1	–
5200 kPa	–	13.38 ± 1
6100 kPa	11.78 ± 1	–
6720 kPa	–	11.71 ± 1
7100 kPa	–	11.26 ± 1
7300 kPa	9.69 ± 1	–
8120 kPa	8.52 ± 1	–
8150 kPa	–	10.09 ± 1
9300 kPa	–	9.14 ± 1
10100 kPa	5.08 ± 1	–
10600 kPa	–	7.78 ± 1
12600 kPa	–	5.78 ± 1
14100 kPa	–	4.3 ± 1
15100 kPa	–	3.57 ± 1
16200 kPa	–	2.81 ± 1
